# Laboratory results: US7396837B2, “Antitumoral analogs of lamellarins” (Pharma Mar, S.A.U., priority 2002, dated 2008)
# Read-outs that look alike come from different tables or passages of the source.
# Experiments:
# Format in all cases: cell-based
# [1] = test system: SK-MEL-28; test: SRB colorimetric cell growth inhibition assay, SK-MEL-28; settings: for GI50: GI=growth inhibition, read-out: GI50 MEL-28; for CC50: cell killing (cytotoxic effect), read-out: LC50 MEL-28
# Outline: (§1)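 Tested samples remained on human cancer cell cultures throughout the incubation; viable biomass was then stained with SRB and read colorimetrically.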
# [2] = test system: IGROV; test: SRB colorimetric cell growth inhibition assay, IGROV; settings: IGROV; for GI50: GI=growth inhibition, read-out: GI50 IGROV; for CC50: cell killing (cytotoxic effect), read-out: LC50 IGROV
# Outline: as §1
# [3] = test system: IGROV-ET; test: SRB colorimetric cell growth inhibition assay, IGROV-ET (ET-743 resistant); settings: IGROV-ET; for GI50: GI=growth inhibition, read-out: GI50 IGROV-ET; for CC50: cell killing (cytotoxic effect), read-out: LC50 IGROV-ET
# Outline: as §1
# [4] = test system: LoVo-Dox; test: SRB colorimetric cell growth inhibition assay, LoVo-Dox (MDR); settings: LOVO-DOX; for GI50: GI=growth inhibition, read-out: GI50 LOVO-DOX; for CC50: cell killing (cytotoxic effect), read-out: LC50 LOVO-DOX
# Outline: as §1
# [5] = test system: LNCaP; test: SRB colorimetric cell growth inhibition assay, LNCaP; settings: LN-caP; for GI50: GI=growth inhibition, read-out: GI50 LN-caP; for CC50: cell killing (cytotoxic effect), read-out: LC50 LN-caP
# Outline: as §1
# [6] = test system: DU-145; test: SRB colorimetric cell growth inhibition assay, DU-145; settings: for CC50: cell killing (cytotoxic effect), read-out: LC50 DU-145; for GI50: GI=growth inhibition, read-out: GI50 DU-145; for IC (TGI): total growth inhibition (cytostatic effect), read-out: TGI DU-145
# Outline: as §1
# [7] = test system: SK-BR-3; test: SRB colorimetric cell growth inhibition assay, SK-BR-3; settings: for GI50: GI=growth inhibition, read-out: GI50 SK-BR-3; for CC50: cell killing (cytotoxic effect), read-out: LC50 SK-BR-3
# Outline: as §1
# [8] = test system: HeLa; test: SRB colorimetric cell growth inhibition assay, HeLa; settings: for GI50: GI=growth inhibition, read-out: GI50 HELA; for CC50: cell killing (cytotoxic effect), read-out: LC50 HELA
# Outline: as §1
# [9] = test system: LoVo; test: SRB colorimetric cell growth inhibition assay, LoVo; settings: for GI50: GI=growth inhibition, read-out: GI50 LOVO; for CC50: cell killing (cytotoxic effect), read-out: LC50 LOVO
# Outline: as §1
# [10] = test system: A-549; test: SRB colorimetric cell growth inhibition assay, A-549; settings: for GI50: GI=growth inhibition, read-out: GI50 A-549; for CC50: cell killing (cytotoxic effect), read-out: LC50 A-549
# Outline: as §1
# [11] = test system: K-562; test: SRB colorimetric cell growth inhibition assay, K-562; settings: for GI50: GI=growth inhibition, read-out: GI50 K-562; for CC50: cell killing (cytotoxic effect), read-out: LC50 K-562
# Outline: as §1
# [12] = test system: HeLa-APL; test: SRB colorimetric cell growth inhibition assay, HeLa-APL (aplidine resistant); settings: HELA-APL; for GI50: GI=growth inhibition, read-out: GI50 HELA-APL; for CC50: cell killing (cytotoxic effect), read-out: LC50 HELA-APL
# Outline: as §1
# [13] = test system: PANC-1; test: SRB colorimetric cell growth inhibition assay, PANC-1; settings: for GI50: GI=growth inhibition, read-out: GI50 PANC-1; for CC50: cell killing (cytotoxic effect), read-out: LC50 PANC-1
# Outline: as §1
# [14] = test system: HT-29; test: SRB colorimetric cell growth inhibition assay, HT-29; settings: for GI50: GI=growth inhibition, read-out: GI50 HT-29; for CC50: cell killing (cytotoxic effect), read-out: LC50 HT-29
# Outline: as §1
# [15] = total growth inhibition (cytostatic effect)
# [16] = Homo sapiens, SK-MEL-28, MEL-28
smiles,measurement,setting,value
COc1cc(-c2c3c4cc(OC)c(OC(=O)[C@H](C)N)cc4oc(=O)c3n3ccc4c(OC(=O)[C@H](C)N)c(OC)c(OC)cc4c23)ccc1OC(=O)[C@H](C)N [Compound 191],GI50,[1]; MEL-28,363 nM
same,CC50,[1]; MEL-28,11700 nM
same,TGI MEL-28,"[1]; MEL-28, total growth inhibition (cytostatic effect)",1.17E−05 Molar
same,GI50,[2],458 nM
same,CC50,[2],11700 nM
same,TGI IGROV,[2]; [15],2.77E−06 Molar
same,GI50,[3],588 nM
same,CC50,[3],11700 nM
same,TGI IGROV-ET,[3]; [15],6.96E−06 Molar
same,GI50,[4],785 nM
same,CC50,[4],11700 nM
same,TGI LOVO-DOX,[4]; [15],1.17E−05 Molar
same,GI50,"[5]; Homo sapiens, LNCaP",244 nM
same,CC50,[5],5360 nM
same,TGI LN-caP,[5]; [15],1.48E−06 Molar
same,CC50,[6]; DU-145,11700 nM
same,GI50,"[6]; Homo sapiens, DU-145, DU-145",62.1 nM
same,IC (TGI),"[6]; Homo sapiens, DU-145, DU-145",228 nM
same,GI50,[7]; SK-BR-3,555 nM
same,CC50,[7]; SK-BR-3,11700 nM
same,TGI SK-BR-3,"[7]; SK-BR-3, total growth inhibition (cytostatic effect)",3.66E−06 Molar
same,GI50,[8]; HELA,948 nM
same,CC50,[8]; HELA,8630 nM
same,TGI HELA,"[8]; HELA, total growth inhibition (cytostatic effect)",2.96E−06 Molar
same,GI50,[9]; LOVO,513 nM
same,CC50,[9]; LOVO,7900 nM
same,TGI LOVO,"[9]; LOVO, total growth inhibition (cytostatic effect)",1.70E−06 Molar
same,GI50,[10]; A-549,573 nM
same,CC50,[10]; A-549,11700 nM
same,TGI A-549,"[10]; A-549, total growth inhibition (cytostatic effect)",1.17E−05 Molar
same,GI50,[11]; K-562,129 nM
same,CC50,[11]; K-562,9490 nM
same,TGI K-562,"[11]; K-562, total growth inhibition (cytostatic effect)",1.69E−06 Molar
same,GI50,[12],940 nM
same,CC50,[12],5960 nM
same,TGI HELA-APL,[12]; [15],2.52E−06 Molar
same,GI50,[13]; PANC-1,1270 nM
same,CC50,[13]; PANC-1,11700 nM
same,TGI PANC-1,"[13]; PANC-1, total growth inhibition (cytostatic effect)",9.66E−06 Molar
same,GI50,[14]; HT-29,6180 nM
same,CC50,[14]; HT-29,11700 nM
same,TGI HT-29,"[14]; HT-29, total growth inhibition (cytostatic effect)",1.17E−05 Molar
COc1cc(-c2c3c4cc(OC)c(OC(=O)CCCCCN)cc4oc(=O)c3n3ccc4c(OC(=O)CCCCCN)c(OC)c(OC)cc4c23)ccc1OC(=O)CCCCCN [Compound 193],GI50,[1]; [16],101 nM
same,CC50,[1]; [16],10200 nM
same,IC (TGI),"[1]; Homo sapiens, SK-MEL-28, MEL-28, total growth inhibition (cytostatic effect), read-out: TGI MEL-28",497 nM
same,GI50,[2]; Homo sapiens,74.1 nM
same,CC50,[2]; Homo sapiens,3480 nM
same,IC (TGI),"[2]; Homo sapiens, total growth inhibition (cytostatic effect), read-out: TGI IGROV",410 nM
same,GI50,[3]; Homo sapiens,136 nM
same,CC50,[3]; Homo sapiens,9590 nM
same,IC (TGI),"[3]; Homo sapiens, total growth inhibition (cytostatic effect), read-out: TGI IGROV-ET",432 nM
same,GI50,[4]; Homo sapiens,313 nM
same,CC50,[4]; Homo sapiens,10200 nM
same,IC (TGI),"[4]; Homo sapiens, total growth inhibition (cytostatic effect), read-out: TGI LOVO-DOX",10200 nM
same,GI50,"[5]; Homo sapiens, LNCaP",118 nM
same,CC50,"[5]; Homo sapiens, LNCaP",5490 nM
same,IC (TGI),"[5]; Homo sapiens, LNCaP, total growth inhibition (cytostatic effect), read-out: TGI LN-caP",491 nM
same,GI50,"[6]; Homo sapiens, DU-145, DU-145",33.3 nM
same,CC50,"[6]; Homo sapiens, DU-145, DU-145",438 nM
same,IC (TGI),"[6]; Homo sapiens, DU-145, DU-145",128 nM
same,GI50,"[7]; Homo sapiens, SK-BR-3, SK-BR-3",227 nM
same,CC50,"[7]; Homo sapiens, SK-BR-3, SK-BR-3",10200 nM
same,IC (TGI),"[7]; Homo sapiens, SK-BR-3, SK-BR-3, total growth inhibition (cytostatic effect), read-out: TGI SK-BR-3",567 nM
same,GI50,"[8]; Homo sapiens, HeLa",350 nM
same,CC50,"[8]; Homo sapiens, HeLa",10200 nM
same,IC (TGI),"[8]; Homo sapiens, HeLa, total growth inhibition (cytostatic effect), read-out: TGI HELA",10200 nM
same,GI50,"[9]; Homo sapiens, LoVo",350 nM
same,CC50,"[9]; Homo sapiens, LoVo",10200 nM
same,IC (TGI),"[9]; Homo sapiens, LoVo, total growth inhibition (cytostatic effect), read-out: TGI LOVO",847 nM
same,GI50,"[10]; Homo sapiens, A549, A-549",607 nM
same,CC50,"[10]; Homo sapiens, A549, A-549",10200 nM
same,IC (TGI),"[10]; Homo sapiens, A549, A-549, total growth inhibition (cytostatic effect), read-out: TGI A-549",10200 nM
same,GI50,"[11]; Homo sapiens, K562, K-562",123 nM
same,CC50,"[11]; Homo sapiens, K562, K-562",3910 nM
same,IC (TGI),"[11]; Homo sapiens, K562, K-562, total growth inhibition (cytostatic effect), read-out: TGI K-562",399 nM
same,GI50,[12]; Homo sapiens,797 nM
same,CC50,[12]; Homo sapiens,10200 nM
same,IC (TGI),"[12]; Homo sapiens, total growth inhibition (cytostatic effect), read-out: TGI HELA-APL",10200 nM
same,GI50,"[13]; Homo sapiens, PANC-1, PANC-1",278 nM
same,CC50,"[13]; Homo sapiens, PANC-1, PANC-1",10200 nM
same,IC (TGI),"[13]; Homo sapiens, PANC-1, PANC-1, total growth inhibition (cytostatic effect), read-out: TGI PANC-1",3600 nM
same,GI50,"[14]; Homo sapiens, HT-29, HT-29",10200 nM
same,CC50,"[14]; Homo sapiens, HT-29, HT-29",10200 nM
same,IC (TGI),"[14]; Homo sapiens, HT-29, HT-29, total growth inhibition (cytostatic effect), read-out: TGI HT-29",10200 nM
